Our source for the IC50 and inhibition values is patent US20070142270A1, “Aryl Sulfonic Pyridoxines as Antiplatelet Agents” (priority 2004, published 2007).

The subject of one assay is human trypsin. The experiment in a line: Inhibition of serine protease activity, trypsin, chromogenic substrate Pefachrome Try. The class given is biochemical. Particulars: 2 nM human trypsin, 300 μM substrate, pH 7.5. As for the experimental part:
(§1) The enzymes factor Xa (fXa), thrombin (factor IIa or fIIa), and trypsin were purchased from Haematologic Technologies Inc. (Essex Junction, Vt.). The substrates Pefachromes Xa, Th, and Try were purchased from Centerchem Inc. (Stamford, Conn.). Varying concentrations of the sulfonamide compounds were incubated for 30 min at room temperature with purified activated human enzyme in the appropriate buffer. Various concentrations of the corresponding synthetic substrate were added, and activity was measured at 37° C. by monitoring absorbance at 405 nm for 15 min with a Flurostar Optima plate reader. […] For controls, the appropriate percentage of solvent was used instead of test compound. The specific activity (ΔA405/min/nM protein), and the percent activity was calculated for each data point. The IC50 was calculated by linear regression of log[test compound] vs. % activity. The enzyme activity of the sulfonamide compound was determined using the Enzyme Kinetics Module of Sigmaplot 8.0 (SPSS Inc.)
The final concentration of human trypsin was 2 nM in a Tris/NaCl buffer (pH 7.5) containing 0.25% (w/v) bovine serum albumin and 20 μM CaCl2. The substrate used was Pefachrome Try.

Assay [1] has as its target T1, human thrombin (factor IIa, fIIa) (Homo sapiens, UniProt P00734).
T1 construct: purchased Haematologic Technologies Inc. (Essex Junction, Vt.)
The experiment in a line: Inhibition of serine protease activity, thrombin, chromogenic substrate Pefachrome Th. It counts as biochemical. Conditions: 2 nM human thrombin, 300 μM substrate, pH 8.3. On the procedure:
as §1
The final concentration of human thrombin was 2 nM in a Tris/NaCl buffer (pH 8.3) containing 0.125% (w/v) bovine serum albumin. The substrate used was Pefachrome Th.

The test system of assay [2] is platelets (platelet rich plasma). Briefly: Inhibition of platelet aggregation in platelet rich plasma (Chrono-log aggregometer). It counts as cell-based. Conditions: human PRP; for inhibition at 250 µM: compound concentration 250 μM; for inhibition at 100 µM: compound concentration 100 μM. On the procedure:
Platelet poor plasma (PPP) was obtained by centrifuging the remainder of the sample after the platelets were removed at 800×g for about 10 minutes. The PRP was adjusted to a count of 280×10^9/L using a mixture of PRP and PPP. The platelets (200 μL) were incubated with the test compounds (25 μL) adjusted to various concentrations ([…]) for about 30 minutes at room temperature (approximate final platelet count in the incubation mixture of 250×10^9/L). The samples were incubated for about 3 minutes at about 37° C., and then transferred to the mixing wells of a Chrono-log 4 channel aggregometer (Chrono-log Corp., Havertown, Pa.). After baselines were established, the agonist (25 μL of 40 μM ADP (Sigma, St. Louis, Mo.) or 25 μL of 50 μg/mL and 10 μg/mL collagen (Helena Laboratories, Beaumont, Tex.) or 25 μL of 120 μM thrombin receptor activating peptide (TRAP) (Sigma)) was then added. Aggregation was monitored for 5 minutes at 37° C. with stirring (1000 rpm). The amplitude and slope of each tracing were calculated to determine the amount of aggregation. Control samples were performed using only solvent. The % reduction in aggregation was calculated for each sample compared to the proper solvent control.

A further assay deals with T2, human Factor Xa (fXa) (Homo sapiens, UniProt P00742).
T2 construct: purchased Haematologic Technologies Inc. (Essex Junction, Vt.)
The experiment in a line: Inhibition of serine protease activity, factor Xa, chromogenic substrate Pefachrome Xa. It counts as biochemical. Conditions: 2 nM human Factor Xa, 300 μM substrate, pH 7.5. On the procedure: as §1
The final concentration of human Factor Xa was 2 nM in a Tris/NaCl buffer (pH 7.5) containing 0.25% (w/v) polyethylene glycol (MW 8000). The substrate employed was Pefachrome Xa.

Setting [3] is: agonist ADP 4 μM, read-out: % Reduction in Aggregation, ADP (4 μM).
Setting [4] is: agonist TRAP 12 μM, read-out: % Reduction in Aggregation, TRAP (12 μM).
Setting [5] is: agonist collagen 1 μg/mL, read-out: % Reduction in Aggregation, Collagen (1 μg/mL).
[6] abbreviates: agonist collagen 5 μg/mL, read-out: % Reduction in Aggregation, Collagen (5 μg/mL).

Where two headings read alike, the source gives them in different places.

T2 sequence (P00742 235-488 limits assumed): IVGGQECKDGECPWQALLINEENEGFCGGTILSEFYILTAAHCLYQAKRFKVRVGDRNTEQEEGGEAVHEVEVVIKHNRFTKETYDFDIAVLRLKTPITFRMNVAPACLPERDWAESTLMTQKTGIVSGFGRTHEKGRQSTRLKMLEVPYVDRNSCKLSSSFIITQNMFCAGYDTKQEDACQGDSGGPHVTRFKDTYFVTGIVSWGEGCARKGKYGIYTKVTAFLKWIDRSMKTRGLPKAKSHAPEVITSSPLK
T2 sequence (P00742 41-179 partner limits assumed): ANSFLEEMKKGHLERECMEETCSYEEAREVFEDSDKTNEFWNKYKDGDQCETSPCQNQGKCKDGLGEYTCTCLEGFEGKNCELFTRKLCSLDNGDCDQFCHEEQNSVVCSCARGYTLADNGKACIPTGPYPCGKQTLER

As to `Cc1ncc(CO)c(CNc2cccc(-c3ccccc3S(N)(=O)=O)c2)c1OCc1ccc(C(=N)N)cc1` [Compound 28, 4-{5-Hydroxymethyl-2-methyl-4-[(2′-sulfamoyl-biphenyl-3-ylamino)-methyl]-pyridin-3-yloxymethyl}-benzamidine], the figures for the IC50 (with human trypsin; in assay [1]; against human Factor Xa (fXa)) were 3 µM, 476 µM and 17 µM, respectively. The inhibition at 250 µM in assay [2] (setting [3]) was determined as 26%; in assay [2] (setting [4]), 11%; in assay [2] (setting [5]), 10%; in assay [2] (setting [6]), 15%.

For `Cc1ncc(CO)c(CNc2cccc(-c3ccccc3S(N)(=O)=O)c2)c1O` [Compound 32, 3′-[(3-Hydroxy-5-hydroxymethyl-2-methyl-pyridin-4-ylmethyl)-amino]-biphenyl-2-sulfoniamide], the IC50 (in the assay with human trypsin; in assay [1]) was over 1000 µM in each case.

As to `Cc1ncc(CNc2cccc(-c3ccccc3S(N)(=O)=O)c2)c(CO)c1O` [Compound 21, 3′-[(5-Hydroxy-4-hydroxymethyl-6-methyl-pyridin-3-ylmethyl)-amino]-biphenyl-2-sulfonic acid amide], the IC50 – broadly, the point on the concentration scale where inhibition reaches its midpoint – is over 1000 µM in the assay with human trypsin, over 1000 µM in assay [1] and 326 µM against human Factor Xa (fXa). Also, the inhibition at 250 µM in assay [2] (setting [3]) was found to be 14%; in assay [2] (setting [4]), 0%; in assay [2] (setting [5]), 4%; in assay [2] (setting [6]), 0%.

Take `Cc1ncc(CNC(=O)c2ccc(-c3ccccc3S(N)(=O)=O)cc2)c(CO)c1OCc1cccc(C(=N)N)c1` [Compound 23]: the IC50 in the assay with human trypsin is 24 µM; in assay [1], 97 µM; against human Factor Xa (fXa) it was 5 µM.

Consider `Cc1ncc(CNC(=O)c2ccc(-c3ccccc3S(=O)(=O)NC(C)(C)C)cc2)c(CO)c1O` [Compound 5, 2′-tert-Butylsulfamoyl-biphenyl-4-carboxylic acid (5-hydroxy-4-hydroxymethyl-6-methyl-pyridin-3-ylmethyl)-amide], for which the IC50 was over 1000 µM with human trypsin, over 1000 µM in assay [1] and 362 µM against human Factor Xa (fXa).

As to `Cc1ncc(CNC(=O)c2ccc(-c3ccccc3S(N)(=O)=O)cc2)c(CO)c1O` [Compound 6, 2′-Sulfamoyl-biphenyl-4-carboxylic acid (5-hydroxy-4-hydroxymethyl-6-methyl-pyridin-3-ylmethyl)-amide], the IC50 in the assay with human trypsin is over 1000 µM; in assay [1], over 1000 µM; at human Factor Xa (fXa), 306 µM. Also, the inhibition at 250 µM stood at 0% in assay [2] (setting [3]), 1% in assay [2] (setting [4]), 5% in assay [2] (setting [5]) and 0% in assay [2] (setting [6]).

With `Cc1ncc(CNc2ccc(-c3ccccc3S(=O)(=O)NC(C)(C)C)cc2)c(CO)c1O` [Compound 2, 4′-[(5-Hydroxy-4-hydroxymethyl-6-methyl-pyridin-3-ylmethyl) -amino]-biphenyl-2-sulfonic acid tert-butylamide], the IC50 is over 1000 µM in the assay on human trypsin, over 1000 µM in assay [1] and 329 µM on human Factor Xa (fXa).

Regarding `Cc1ncc(CO)c(CNc2ccc(-c3ccccc3S(N)(=O)=O)cc2)c1OCc1cccc(C(=N)N)c1` [Compound 25, 3-{5-Hydroxymethyl-2-methyl-4-[(2′-sulfamoyl-biphenyl-4-ylamino)-methyl]-pyridin-3-yloxymethyl}-benzamidine], the IC50 in the assay on human trypsin was 15 µM; in assay [1], over 1000 µM; against human Factor Xa (fXa), 4 µM.

For `Cc1ncc(CO)c(CNc2ccc(-c3ccccc3S(N)(=O)=O)cc2)c1O` [Compound 8], the concentration for half-maximal inhibition (IC50) (in the assay on human trypsin; in assay [1]; against human Factor Xa (fXa)) was over 1000 µM in each case.

For the compound `Cc1ncc(CNc2ccc(-c3ccccc3S(N)(=O)=O)cc2)c(CO)c1OCc1cccc(C(=N)N)c1` [Compound 14], the half-maximal inhibitory concentration (IC50) turned out to be 12 µM with human trypsin, 862 µM in assay [1] and 15 µM at human Factor Xa (fXa). In addition, the inhibition at 250 µM was 10% in assay [2] (setting [3]), 9% in assay [2] (setting [4]), 15% in assay [2] (setting [5]) and 5% in assay [2] (setting [6]).

As for `Cc1ncc(CNc2ccc(-c3ccccc3S(N)(=O)=O)cn2)c(CO)c1O` [Compound 31, 2-{6-[(5-Hydroxy-4-hydroxymethyl-6-methyl-pyridin-3-ylmethyl)-amino]-pyridin-3-yl}-benzenesulfonamide], the concentration for half-maximal inhibition (IC50) (with human trypsin; in assay [1]; against human Factor Xa (fXa)) was over 1000 µM each time.

As to `Cc1ncc(CNc2ccc(-c3ccc(C(=N)N)cc3)cc2)c(CO)c1O` [Compound 34, reference compound], the IC50 was 4 µM in the assay with human trypsin, over 1000 µM in assay [1] and 29 µM at human Factor Xa (fXa). Besides, the inhibition at 250 µM in assay [2] (setting [3]) amounted to 63%; in assay [2] (setting [4]), 93%; in assay [2] (setting [5]), 41%; in assay [2] (setting [6]), 1%.

In the case of `Cc1ncc(CO)c(CNc2ccc(-c3ccccc3S(N)(=O)=O)cc2F)c1OCc1ccc(C(=N)N)cc1` [Compound 30, 4-{4-[(3-Fluoro-2′-sulfamoyl-biphenyl-4-ylamino)-methyl]-5-hydroxymethyl-2-methyl-pyridin-3-yloxymethyl}-benzamidine], the IC50 in the assay with human trypsin was found to be 4 µM; in assay [1], 171 µM; against human Factor Xa (fXa) it was 18 µM. The inhibition at 100 µM in assay [2] (setting [3]) stood at 23%; in assay [2] (setting [4]) it was 57%; in assay [2] (setting [5]), 57%; in assay [2] (setting [6]) it was 19%.

For `Cc1ncc(CO)c(CNc2ccc(-c3ccccc3S(=O)(=O)NC(C)(C)C)cc2)c1O` [Compound 7, 4′-[(3-Hydroxy-5-hydroxymethyl-2-methyl-pyridin-4-ylmethyl)-amino]-biphenyl-2-sulfonic acid tert-butylamide], the IC50 with human trypsin is over 1000 µM; in assay [1], over 1000 µM; against human Factor Xa (fXa) it was 197 µM.

Regarding `Cc1ncc(CNc2ccc(-c3ccccc3S(N)(=O)=O)cc2)c(CO)c1O` [Compound 3, 4′-[(5-Hydroxy-4-hydroxymethyl-6-methyl-pyridin-3-ylmethyl)-amino]-biphenyl-2-sulfonic acid amide], the IC50 (with human trypsin; in assay [1]; on human Factor Xa (fXa)) was over 1000 µM in each case. Besides, the inhibition at 250 µM in assay [2] (setting [3]) came to 0%; in assay [2] (setting [4]), 6%; in assay [2] (setting [5]), 0%; in assay [2] (setting [6]), 5%.

Take `Cc1ncc(CNc2ccc(-c3ccccc3S(N)(=O)=O)cn2)c(CO)c1OCc1cccc(C(=N)N)c1` [Compound 16]: the IC50 in the assay on human trypsin was 11 µM; in assay [1], over 1000 µM; at human Factor Xa (fXa) it was 11 µM. In addition, the inhibition at 250 µM in assay [2] (setting [3]) was 3%; in assay [2] (setting [4]), 1.3%; in assay [2] (setting [5]) it was 14%; in assay [2] (setting [6]) it was 0%.
